Laboratory results: US10406207B2, “Peptide conjugates of GLP-1 receptor agonists and gastrin and their use” (priority 2010, dated 2019)
Where two headings read alike, the source gives them in different places. Numbered stars: 1 amine (or outer) side, 2 acyl side, 3 side chain; on linkers, the order of the positions; unused ones are H or OH. Square brackets hold non-standard residues; d marks the D form. Side chains are listed from the residue outwards. Peptide text beside a SMILES is read from it. * marks the point of attachment. γGlu = O=C(O)[C@H](CCC(=O)[*:2])N[*:1]; Palmitoyl = CCCCCCCCCCCCCCCC(=O)*; Orn = NCCC[C@H](N)C(=O)O; AEEA = NCCOCCOCC(=O)O

Columns and labels:
human CCK-B R = target: T1, human CCK-B R (Homo sapiens, UniProt P32239); assay: Human CCK-B receptor efficacy assay (AlphaScreen SureFire p-ERK); type: cell-based; settings: read-out: hCCK-B R EC50
T1 construct: expressed in transfected cells
T1 sequence (P32239 1-447): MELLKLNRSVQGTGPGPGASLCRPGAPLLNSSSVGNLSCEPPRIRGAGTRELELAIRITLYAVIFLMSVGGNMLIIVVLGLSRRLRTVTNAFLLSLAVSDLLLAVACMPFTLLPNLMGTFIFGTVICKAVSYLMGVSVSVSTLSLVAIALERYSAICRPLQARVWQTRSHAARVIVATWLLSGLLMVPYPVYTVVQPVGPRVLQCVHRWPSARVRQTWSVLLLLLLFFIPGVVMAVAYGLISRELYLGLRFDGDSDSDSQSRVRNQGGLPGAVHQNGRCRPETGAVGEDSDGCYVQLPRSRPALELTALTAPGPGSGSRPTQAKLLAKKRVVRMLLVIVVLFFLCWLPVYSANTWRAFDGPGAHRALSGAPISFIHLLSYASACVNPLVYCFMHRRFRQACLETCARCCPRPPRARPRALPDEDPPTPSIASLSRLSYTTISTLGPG

human GLP-1 R = target: T2, human GLP-1 R (Homo sapiens, UniProt P43220); assay: Human GLP-1 receptor efficacy assay (cAMP induction, FlashPlate); type: cell-based; settings: read-out: hGLP-1 R EC50
T2 construct: expressed in transfected cells
Experimental: On the day of analysis, growth medium was removed and the cells were washed once with 200 μl Tyrode buffer [Tyrode's Salts (9.6 g/l), 10 mM HEPES, pH 7.4]. […] The reaction was stopped by addition of 25 μl 0.5 M HCl and incubated on ice for 60 min.

T2 sequence (P43220 24-463): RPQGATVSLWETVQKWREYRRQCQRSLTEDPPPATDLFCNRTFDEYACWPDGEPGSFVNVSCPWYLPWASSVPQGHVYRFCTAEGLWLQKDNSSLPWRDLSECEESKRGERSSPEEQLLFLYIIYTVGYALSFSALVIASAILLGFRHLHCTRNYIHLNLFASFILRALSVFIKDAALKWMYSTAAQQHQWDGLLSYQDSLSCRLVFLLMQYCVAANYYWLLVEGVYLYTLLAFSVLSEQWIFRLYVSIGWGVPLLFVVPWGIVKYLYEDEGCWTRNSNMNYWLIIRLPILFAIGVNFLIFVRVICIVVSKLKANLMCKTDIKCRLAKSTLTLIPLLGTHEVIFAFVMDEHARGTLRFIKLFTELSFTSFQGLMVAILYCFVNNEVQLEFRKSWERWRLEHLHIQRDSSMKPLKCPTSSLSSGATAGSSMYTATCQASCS

EC50 (human CCK-B R; Table 2) [nM]	EC50 (human GLP-1 R; Table 2) [nM]	EC50 (human CCK-B R; Table 3) [nM]	EC50 (human GLP-1 R; Table 3) [nM]	Structure (SMILES)
		78	0.11	CCCCCCCCCCCCCCCC(=O)N[C@@H](CCC(=O)NCCCC[C@H](NC(=O)CNC(=O)[C@H](CCCNC(=N)N)NC(=O)[C@@H](NC(=O)[C@H](CC(C)C)NC(=O)[C@H](Cc1c[nH]c2ccccc12)NC(=O)[C@H](C)NC(=O)[C@@H](NC(=O)[C@H](Cc1ccccc1)NC(=O)[C@H](CCC(=O)O)NC(=O)[C@H](CCCNC(=N)N)NC(=O)[C@H](C)NC(=O)[C@H](C)NC(=O)[C@H](CCC(N)=O)NC(=O)CNC(=O)[C@H](CCC(=O)O)NC(=O)[C@H](CC(C)C)NC(=O)[C@H](Cc1ccc(O)cc1)NC(=O)[C@H](CO)NC(=O)[C@H](CO)NC(=O)[C@@H](NC(=O)[C@H](CC(=O)O)NC(=O)[C@H](CO)NC(=O)[C@@H](NC(=O)[C@H](Cc1ccccc1)NC(=O)[C@@H](NC(=O)CNC(=O)[C@H](CCC(=O)O)NC(=O)[C@H](C)NC(=O)[C@@H](N)Cc1c[nH]cn1)[C@@H](C)O)[C@@H](C)O)C(C)C)[C@@H](C)CC)C(C)C)C(=O)NCC(=O)NCCOCCOCC(=O)NCCOCCOCC(=O)N[C@@H](Cc1ccc(O)cc1)C(=O)NCC(=O)N[C@@H](Cc1c[nH]c2ccccc12)C(=O)N[C@@H](CC(C)C)C(=O)N[C@@H](CC(=O)O)C(=O)N[C@@H](Cc1ccccc1)C(N)=O)C(=O)O [Compound 108, [Arg26,34,Lys(Hexadecanoyl-isoGlu)36]GLP-1(7-37)-Peg3-Peg3-[Leu4]Gastrin6] (H-HAEGTFTSDVSSYLEGQAAREFIAWLVRGK([γGlu-Palmitoyl])G[AEEA][AEEA]YGWLDF-NH2)
		29	0.12	CCCCCCCCCCCCCCCC(=O)N[C@@H](CCC(=O)NCCCC[C@H](NC(=O)CNC(=O)[C@H](CCCNC(=N)N)NC(=O)[C@@H](NC(=O)[C@H](CC(C)C)NC(=O)[C@H](Cc1c[nH]c2ccccc12)NC(=O)[C@H](C)NC(=O)[C@@H](NC(=O)[C@H](Cc1ccccc1)NC(=O)[C@H](CCC(=O)O)NC(=O)[C@H](CCCNC(=N)N)NC(=O)[C@H](C)NC(=O)[C@H](C)NC(=O)[C@H](CCC(N)=O)NC(=O)CNC(=O)[C@H](CCC(=O)O)NC(=O)[C@H](CC(C)C)NC(=O)[C@H](Cc1ccc(O)cc1)NC(=O)[C@H](CO)NC(=O)[C@H](CO)NC(=O)[C@@H](NC(=O)[C@H](CC(=O)O)NC(=O)[C@H](CO)NC(=O)[C@@H](NC(=O)[C@H](Cc1ccccc1)NC(=O)[C@@H](NC(=O)CNC(=O)[C@H](CCC(=O)O)NC(=O)CNC(=O)[C@@H](N)Cc1c[nH]cn1)[C@@H](C)O)[C@@H](C)O)C(C)C)[C@@H](C)CC)C(C)C)C(=O)NCC(=O)NCCOCCOCC(=O)NCCOCCOCC(=O)N[C@@H](Cc1ccc(O)cc1)C(=O)NCC(=O)N[C@@H](Cc1c[nH]c2ccccc12)C(=O)N[C@@H](CC(C)C)C(=O)N[C@@H](CC(=O)O)C(=O)N[C@@H](Cc1ccccc1)C(N)=O)C(=O)O [Compound 110, [Arg26,34,Gly8,Lys(Hexadecanoyl-isoGlu)36]GLP-1(7-37)-Peg3-Peg3-[Leu4]Gastrin6] (H-HGEGTFTSDVSSYLEGQAAREFIAWLVRGK([γGlu-Palmitoyl])G[AEEA][AEEA]YGWLDF-NH2)

The next lines start with the molecule.

Structure (SMILES)	EC50 (human CCK-B R; Table 2) [nM]	EC50 (human GLP-1 R; Table 2) [nM]	EC50 (human CCK-B R; Table 3) [nM]	EC50 (human GLP-1 R; Table 3) [nM]
CC[C@H](C)[C@H](NC(=O)[C@H](Cc1ccccc1)NC(=O)[C@H](CC(C)C)NC(=O)[C@H](CCCNC(=N)N)NC(=O)[C@@H](NC(=O)[C@H](C)NC(=O)[C@H](CCC(=O)O)NC(=O)[C@H](CCC(=O)O)NC(=O)[C@H](CCC(=O)O)NC(=O)[C@H](CC(C)C)NC(=O)[C@H](Cc1ccc(O)cc1)NC(=O)[C@H](CCCCN)NC(=O)[C@H](CO)NC(=O)[C@H](CC(C)C)NC(=O)[C@H](CCC(=O)O)NC(=O)[C@H](CO)NC(=O)[C@@H](NC(=O)[C@H](Cc1ccccc1)NC(=O)[C@@H](NC(=O)CNC(=O)[C@H](CCC(=O)O)NC(=O)CNC(=O)[C@@H](N)Cc1c[nH]cn1)[C@@H](C)O)[C@@H](C)O)C(C)C)C(=O)N[C@@H](CCC(=O)O)C(=O)N[C@@H](Cc1ccccc1)C(=O)N[C@@H](CC(C)C)C(=O)N[C@@H](CCCCN)C(=O)N[C@@H](CCCN)C(=O)NCCOCCOCC(=O)N[C@@H](Cc1ccc(O)cc1)C(=O)NCC(=O)N[C@@H](Cc1c[nH]c2ccccc12)C(=O)N[C@@H](CC(C)C)C(=O)N[C@@H](CC(=O)O)C(=O)N[C@@H](Cc1ccccc1)C(N)=O [Compound 103, [Glu9,Leu14,Phe25,Tyr13]Exendin-4(1-27)-Orn-Peg3-[Leu4]Gastrin6] (H-HGEGTFTSELSKYLEEEAVRLFIEFLK[Orn][AEEA]YGWLDF-NH2)	100	0.12		
CC[C@H](C)[C@H](NC(=O)[C@H](Cc1ccccc1)NC(=O)[C@H](CC(C)C)NC(=O)[C@H](CCCNC(=N)N)NC(=O)[C@@H](NC(=O)[C@H](C)NC(=O)[C@H](CCC(=O)O)NC(=O)[C@H](CCC(=O)O)NC(=O)[C@H](CCC(=O)O)NC(=O)[C@H](CC(C)C)NC(=O)[C@H](Cc1ccc(O)cc1)NC(=O)[C@H](CCCCN)NC(=O)[C@H](CO)NC(=O)[C@H](CC(C)C)NC(=O)[C@H](CCC(=O)O)NC(=O)[C@H](CO)NC(=O)[C@@H](NC(=O)[C@H](Cc1ccccc1)NC(=O)[C@@H](NC(=O)CNC(=O)[C@H](CCC(=O)O)NC(=O)CNC(=O)[C@@H](N)Cc1c[nH]cn1)[C@@H](C)O)[C@@H](C)O)C(C)C)C(=O)N[C@@H](CCC(=O)O)C(=O)N[C@@H](Cc1ccccc1)C(=O)N[C@@H](CC(C)C)C(=O)N[C@@H](CCCCN)C(=O)NCCOCCOCC(=O)N[C@@H](CCCN)C(=O)N[C@@H](Cc1ccc(O)cc1)C(=O)NCC(=O)N[C@@H](Cc1c[nH]c2ccccc12)C(=O)N[C@@H](CC(C)C)C(=O)N[C@@H](CC(=O)O)C(=O)N[C@@H](Cc1ccccc1)C(N)=O [Compound 104, [Glu9,Leu14,Phe25,Tyr13]Exendin-4(1-27)-Peg3-Orn-[Leu4]Gastrin6] (H-HGEGTFTSELSKYLEEEAVRLFIEFLK[AEEA][Orn]YGWLDF-NH2)	8.8	0.087		
CC[C@H](C)[C@H](NC(=O)[C@H](Cc1ccccc1)NC(=O)[C@H](CC(C)C)NC(=O)[C@H](CCCNC(=N)N)NC(=O)[C@@H](NC(=O)[C@H](C)NC(=O)[C@H](CCC(=O)O)NC(=O)[C@H](CCC(=O)O)NC(=O)[C@H](CCC(=O)O)NC(=O)[C@H](CC(C)C)NC(=O)[C@H](Cc1ccc(O)cc1)NC(=O)[C@H](CCCCN)NC(=O)[C@H](CO)NC(=O)[C@H](CC(C)C)NC(=O)[C@H](CCC(=O)O)NC(=O)[C@H](CO)NC(=O)[C@@H](NC(=O)[C@H](Cc1ccccc1)NC(=O)[C@@H](NC(=O)CNC(=O)[C@H](CCC(=O)O)NC(=O)CNC(=O)[C@@H](N)Cc1c[nH]cn1)[C@@H](C)O)[C@@H](C)O)C(C)C)C(=O)N[C@@H](CCC(=O)O)C(=O)N[C@@H](Cc1ccccc1)C(=O)N[C@@H](CC(C)C)C(=O)N[C@@H](CCCCN)C(=O)N[C@@H](CCCN)C(=O)N[C@@H](CCCN)C(=O)N[C@@H](Cc1ccc(O)cc1)C(=O)NCC(=O)N[C@@H](Cc1c[nH]c2ccccc12)C(=O)N[C@@H](CC(C)C)C(=O)N[C@@H](CC(=O)O)C(=O)N[C@@H](Cc1ccccc1)C(N)=O [Compound 105, [Glu9,Leu14,Phe25,Tyr13]Exendin-4(1-27)-Orn-Orn-[Leu4]Gastrin6] (H-HGEGTFTSELSKYLEEEAVRLFIEFLK[Orn][Orn]YGWLDF-NH2)	16	0.11		
CCCCCCCCCCCCCCCC(=O)N[C@@H](CCC(=O)NCCCC[C@H](NC(=O)[C@H](C)NC(=O)[C@H](C)NC(=O)[C@H](CCC(N)=O)NC(=O)CNC(=O)[C@H](CCC(=O)O)NC(=O)[C@H](CC(C)C)NC(=O)[C@H](Cc1ccc(O)cc1)NC(=O)[C@H](CO)NC(=O)[C@H](CO)NC(=O)[C@@H](NC(=O)[C@H](CC(=O)O)NC(=O)[C@H](CO)NC(=O)[C@@H](NC(=O)[C@H](Cc1ccccc1)NC(=O)[C@@H](NC(=O)CNC(=O)[C@H](CCC(=O)O)NC(=O)C(C)(C)NC(=O)[C@@H](N)Cc1c[nH]cn1)[C@@H](C)O)[C@@H](C)O)C(C)C)C(=O)N[C@@H](CCC(=O)O)C(=O)N[C@@H](Cc1ccccc1)C(=O)N[C@H](C(=O)N[C@@H](C)C(=O)N[C@@H](Cc1c[nH]c2ccccc12)C(=O)N[C@@H](CC(C)C)C(=O)N[C@H](C(=O)N[C@@H](CCCNC(=N)N)C(=O)NCC(=O)N[C@@H](CCCNC(=N)N)C(=O)NCC(=O)NCCOCCOCC(=O)NCCOCCOCC(=O)N[C@@H](Cc1ccc(O)cc1)C(=O)NCC(=O)N[C@@H](Cc1c[nH]c2ccccc12)C(=O)N[C@@H](CC(C)C)C(=O)N[C@@H](CC(=O)O)C(=O)N[C@@H](Cc1ccccc1)C(N)=O)C(C)C)[C@@H](C)CC)C(=O)O [Compound 111, [Aib8,Arg34,Lys(Hexadecanoyl-isoGlu)26]GLP-1(7-37)-Peg3-Peg3-[Leu4]Gastrin6]			59	0.088
